Test results published in PMC10333884, “Large‐scale phosphomimetic screening identifies phospho‐modulated motif‐based protein interactions” (Molecular Systems Biology, 2023).
Values belong to the compound of their own block, whether it stands above or below them. Non-standard residues stand in square brackets, D forms with d. Residues, ends and D or L forms follow the SMILES beside them. pT = C[C@@H](OP(=O)(O)O)[C@H](N)C(=O)O; pS = N[C@@H](COP(=O)(O)O)C(=O)O

Assays:
Assay type in all cases: binding
[1] = target: T1, GGA1 VHS (Homo sapiens, UniProt Q9UJY5); assay: FP displacement assay, GGA1 VHS
T1 construct: GGA1_VHS__Q9UJY5_1_157; GST (cleaved yes); made in house; host or cells: Escherichia coli BL21-Gold(DE3)
T1 sequence (Q9UJY5 1-157): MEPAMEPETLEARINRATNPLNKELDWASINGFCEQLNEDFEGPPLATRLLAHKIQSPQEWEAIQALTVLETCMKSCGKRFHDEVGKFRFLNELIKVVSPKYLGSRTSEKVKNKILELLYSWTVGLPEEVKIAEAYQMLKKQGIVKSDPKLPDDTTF
Experimental: (§1) FP experiments were performed as described previously (Kliche et al, [2021]). Shortly, in order to monitor the binding event, FITC‐labelled peptides were used (excitation 495 nm, emission: 535 nm) and the FP signal was recorded in mP on a SpectraMax iD5 Multi‐Mode Microplate Reader (Molecular Devices) by measuring the emitted light in two angels. The measurements were performed at room temperature and prepared in nonbinding black half area 96‐well microplates (Corning®; 50 μl/well). For measuring direct binding, that is saturation curves, a 1:1 dilution series of protein domain (25 μl/well) was generated in 50 mM sodium phosphate buffer pH 7.4 and the measurement performed with 5 nM FITC‐labelled peptide (25 μl/well). The buffer‐corrected values were subsequently plotted with PRISM and fitted to the quadratic equation (Gianni et al, [2005]).
(§2) The 1:1 dilution series in this experiment was performed with the unlabelled peptide in 50 mM sodium phosphate buffer pH 7.4, so that each well‐contained unlabelled peptide (25 μl) at a certain concentration and pre‐formed complex (25 μl). The KD values of this indirectly monitored binding event were calculated as described previously (Nikolovska‐Coleska et al, [2004]). All measurements were at least in technical triplicates as well as biological duplicates when indicated. An amplitude shift between repeat measurements in the displacement experiments was occasionally observed due to variations in the protein preparations. If that was the case, the “active” protein concentration was back‐calculated according to the quadratic equation from the saturation curves performed in parallel. By comparing the active protein concentrations in the complex between different protein preparations, the amplitude was normalised.

[2] = target: T1, GGA1 VHS; assay: ITC, GGA1 VHS; design: Ka: unit not given beside the values; conditions: for Kd: ITC (iTC200), 50 mM sodium phosphate pH 7.4, 1 mM DTT, average of the runs, technical duplicates
[3] = target: T2, SNX27 PDZ (Homo sapiens, UniProt Q96L92); assay: FP displacement assay, SNX27 PDZ (MBP-tagged); conditions: for Kd: MBP-tagged domain, probe FITC-SYT16 5 nM, 50 mM sodium phosphate pH 7.4, room temperature, at least three technical replicates, read-out: KD values ± SEM
T2 construct: SNX27_PDZ__Q96L92_40_141; made in house; host or cells: Escherichia coli BL21-Gold(DE3)
Experimental: For FP, ITC and crystallisation, the tag was removed with the appropriate protease either on beads (0.1 mg/ml thrombin (Cytiva) in PBS, 1 mM dithiothreitol (DTT)) or by dialysis in cleavage buffer (Human Rhinovirus (HRV) 3C protease: 50 mM Tris–HCl pH 7.4, 150 mM NaCl, 1 mM β‐mercaptoethanol), both procedures were overnight. In case of HRV protease cleavage, the tag was separated from the target protein domain by reverse ion metal affinity chromatography using Ni^2+ beads for purification, whereas thrombin was removed using a benzamidine column (Cytiva). Affinity measurements for SNX27 PDZ were performed on the MBP‐tagged construct, as well as PIN1 WW domain on the GST‐tagged construct. For FP and ITC, proteins were dialysed in 50 mM sodium phosphate buffer pH 7.4, 1 mM DTT. For crystallisation of the NTD of clathrin, the protein was further purified by a S200 Sepharose column (Cytiva) using 20 mM Tris–HCl pH 7.4, 150 mM NaCl and 1 mM DTT.
as §1, §2

[4] = target: T3, Clathrin NTD (Homo sapiens, UniProt Q00610); assay: FP displacement assay, clathrin NTD
T3 construct: GST (cleaved yes); made in house; host or cells: Escherichia coli BL21-Gold(DE3)
T3 sequence (Q00610 1-364): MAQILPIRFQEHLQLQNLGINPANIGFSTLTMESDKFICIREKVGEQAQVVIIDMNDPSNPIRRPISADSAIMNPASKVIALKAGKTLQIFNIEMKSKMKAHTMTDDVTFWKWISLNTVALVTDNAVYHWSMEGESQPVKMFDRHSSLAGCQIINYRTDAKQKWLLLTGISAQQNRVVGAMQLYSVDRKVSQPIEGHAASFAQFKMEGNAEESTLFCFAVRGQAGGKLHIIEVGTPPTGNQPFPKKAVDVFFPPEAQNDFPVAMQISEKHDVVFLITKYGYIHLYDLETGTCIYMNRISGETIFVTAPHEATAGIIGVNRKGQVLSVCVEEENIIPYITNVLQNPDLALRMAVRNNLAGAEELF
Experimental: as §1, §2

[5] = FP displacement, probe FITC-IGF2R 5 nM, 50 mM sodium phosphate pH 7.4, room temperature, at least three technical replicates, read-out: KD values ± SEM
[6] = ITC single run: date 200220, injection 1
[7] = ITC single run: date 200220, injection 2

SMILES: CC(=O)N[C@@H](CC(N)=O)C(=O)N[C@@H](CC(C)C)C(=O)N[C@@H](CC(C)C)C(=O)N[C@@H](CC(C)C)C(=O)N[C@@H](CCC(=O)O)C(=O)N[C@@H](CCCNC(=N)N)C(=O)N[C@@H](CC(=O)O)C(=O)N[C@H](C(=O)N[C@@H](COP(=O)(O)O)C(=O)N[C@@H](Cc1ccccc1)C(=O)N[C@H](C(=O)N[C@H](C(=O)N[C@@H](C)C(=O)N1CCC[C@H]1C(=O)N[C@@H](CC(=O)O)C(=O)N[C@@H](Cc1ccc(O)cc1)C(N)=O)C(C)C)[C@@H](C)O)[C@@H](C)O [CDC25C30–44 pS] (Ac-NLLLERDT[pS]FTVAPDY-NH2)
Kd [3]: 395 ± 63 µM

SMILES: CC(=O)N[C@@H](CC(=O)O)C(=O)N[C@@H](CC(C)C)C(=O)N[C@@H](CC(C)C)C(=O)N[C@H](C(=O)N[C@@H](CO)C(=O)N1CCC[C@H]1C(=O)N[C@@H](CC(=O)O)C(=O)N[C@H](C(=O)NCC(=O)N[C@@H](CC(C)C)C(=O)N[C@@H](CC(C)C)C(=O)N[C@@H](CCCCN)C(=O)N[C@@H](CC(C)C)C(=O)N[C@@H](C)C(=O)N[C@@H](CO)C(=O)N[C@@H](Cc1ccc(O)cc1)C(N)=O)C(C)C)[C@@H](C)OP(=O)(O)O [JUN59–73 pS] (Ac-DLL[pT]SPDVGLLKLASY-NH2)
Kd [1]: 1900 µM

SMILES: CC(=O)N[C@@H](CC(N)=O)C(=O)N[C@@H](CC(C)C)C(=O)N[C@@H](CC(C)C)C(=O)N[C@@H](CC(C)C)C(=O)N[C@@H](CCC(=O)O)C(=O)N[C@@H](CCCNC(=N)N)C(=O)N[C@@H](CC(=O)O)C(=O)N[C@H](C(=O)N[C@@H](CO)C(=O)N[C@@H](Cc1ccccc1)C(=O)N[C@H](C(=O)N[C@H](C(=O)N[C@@H](C)C(=O)N1CCC[C@H]1C(=O)N[C@@H](CC(=O)O)C(=O)N[C@@H](Cc1ccc(O)cc1)C(N)=O)C(C)C)[C@@H](C)O)[C@@H](C)O [CDC25C30–44 wt] (Ac-NLLLERDTSFTVAPDY-NH2)
Kd [3]: 111 ± 17 µM

SMILES: CC(=O)N[C@@H](CC(=O)O)C(=O)N[C@@H](CC(C)C)C(=O)N[C@@H](CC(C)C)C(=O)N[C@H](C(=O)N[C@@H](CO)C(=O)N1CCC[C@H]1C(=O)N[C@@H](CC(=O)O)C(=O)N[C@H](C(=O)NCC(=O)N[C@@H](CC(C)C)C(=O)N[C@@H](CC(C)C)C(=O)N[C@@H](CCCCN)C(=O)N[C@@H](CC(C)C)C(=O)N[C@@H](C)C(=O)N[C@@H](CO)C(=O)N[C@@H](Cc1ccc(O)cc1)C(N)=O)C(C)C)[C@@H](C)O [JUN59–73 wt] (Ac-DLLTSPDVGLLKLASY-NH2)
Kd [1]: 470 ± 50 µM

SMILES: CC[C@H](C)[C@H](NC(=O)[C@H](CC(C)C)NC(=O)[C@H](CC(N)=O)NC(=O)CNC(=O)CNC(=O)[C@H](Cc1ccc(O)cc1)NC(C)=O)C(=O)N[C@H](C(=O)N[C@@H](Cc1ccccc1)C(=O)N[C@@H](COP(=O)(O)O)C(=O)N1CCC[C@H]1C(=O)N[C@@H](CC(C)C)C(=O)N[C@@H](CCC(N)=O)C(=O)N1CCC[C@H]1C(=O)NCC(=O)N[C@@H](CCC(=O)O)C(=O)N[C@@H](Cc1ccccc1)C(=O)O)[C@@H](C)O [HURP832–846 pS Cterm] (Ac-YGGNLITF[pS]PLQPGEF-OH)
Kd [4]: < 3 µM
IC50 ([4]; Fig 6A, clathrin NTD, FP displacement, two to three technical replicates per protein preparation, 2 independent preparations, read-out: IC50 values of displacement curves, with SEM): 11 ± 4 µM

SMILES: CC[C@H](C)[C@H](NC(=O)[C@H](CC(C)C)NC(=O)[C@H](CCC(N)=O)NC(=O)CNC(=O)[C@H](Cc1ccc(O)cc1)NC(C)=O)C(=O)N[C@@H](CC(=O)O)C(=O)N[C@@H](CC(C)C)C(=O)N[C@@H](CO)C(=O)N[C@@H](CO)C(=O)N1CCC[C@H]1C(=O)N[C@@H](CC(C)C)C(=O)N[C@H](C(=O)N[C@@H](CCC(N)=O)C(=O)N[C@@H](CC(C)C)C(=O)N[C@@H](CO)C(=O)N1CCC[C@H]1C(=O)N[C@@H](CCC(=O)O)C(N)=O)[C@@H](C)CC [GTSE1_692–707] (Ac-YGQLIDLSSPLIQLSPE-NH2)
Kd [4]: ~100 µM

Now from value to compound:

Kd [1, 5]: 420 ± 50 µM
Kd [2]: 919 µM
Ka [2, 6]: 2030
Ka [2, 7]: 744
SMILES: CC[C@H](C)[C@H](NC(=O)[C@H](CC(=O)O)NC(=O)[C@H](CC(=O)O)NC(=O)[C@H](CO)NC(=O)[C@@H](NC(=O)[C@@H]1CCCN1C(=O)[C@H](CO)NC(=O)[C@H](CCCCN)NC(=O)[C@H](Cc1ccc(O)cc1)NC(C)=O)[C@@H](C)O)C(=O)N[C@@H](CO)C(=O)N[C@@H](CC(C)C)C(=O)N[C@@H](CC(C)C)C(=O)N[C@@H](Cc1c[nH]cn1)C(=O)N[C@@H](CCC(=O)O)C(=O)N[C@@H](CO)C(=O)N[C@@H](CCC(N)=O)C(=O)N[C@@H](CO)C(N)=O [RNF11_6–21 wt] (Ac-YKSPTSDDISLLHESQS-NH2)

Kd [1, 5]: 31 ± 3 µM
Kd [2]: 27 µM
Ka [2, 6]: 35100
Ka [2, 7]: 38900
SMILES: CC[C@H](C)[C@H](NC(=O)[C@H](CC(=O)O)NC(=O)[C@H](CC(=O)O)NC(=O)[C@H](CO)NC(=O)[C@@H](NC(=O)[C@@H]1CCCN1C(=O)[C@H](CO)NC(=O)[C@H](CCCCN)NC(=O)[C@H](Cc1ccc(O)cc1)NC(C)=O)[C@@H](C)O)C(=O)N[C@@H](COP(=O)(O)O)C(=O)N[C@@H](CC(C)C)C(=O)N[C@@H](CC(C)C)C(=O)N[C@@H](Cc1c[nH]cn1)C(=O)N[C@@H](CCC(=O)O)C(=O)N[C@@H](CO)C(=O)N[C@@H](CCC(N)=O)C(=O)N[C@@H](CO)C(N)=O [RNF11_6–21 pS] (Ac-YKSPTSDDI[pS]LLHESQS-NH2)

Kd [1, 5]: 96 ± 8 µM
SMILES: CC(=O)N[C@@H](CCC(=O)O)C(=O)N[C@H](C(=O)N[C@@H](Cc1ccc(O)cc1)C(=O)N[C@@H](Cc1ccc(O)cc1)C(=O)N[C@@H](CC(C)C)C(=O)N[C@@H](CO)C(=O)N[C@@H](CC(=O)O)C(=O)N[C@@H](CO)C(=O)N1CCC[C@H]1C(=O)N[C@@H](CC(C)C)C(=O)N[C@@H](CC(C)C)C(=O)NCC(=O)N1CCC[C@H]1C(=O)N1CCC[C@H]1C(=O)N[C@H](C(=O)NCC(N)=O)C(C)C)[C@@H](C)O [GTSE1_145–160 wt] (Ac-ETYYLSDSPLLGPPVG-NH2)

Kd [3]: 300 ± 125 µM
SMILES: CSCC[C@H](NC(=O)CNC(C)=O)C(=O)N[C@H](C(=O)N[C@@H](CO)C(=O)N[C@@H](CO)C(=O)N[C@H](C(=O)N[C@@H](CO)C(=O)N[C@@H](Cc1ccccc1)C(=O)N[C@@H](CC(N)=O)C(=O)NCC(=O)NCC(=O)N[C@@H](Cc1ccc(O)cc1)C(N)=O)[C@@H](C)O)C(C)C [DAXX606–616 wt] (Ac-GMVSSTSFNGGY-NH2)

IC50 ([3]; Fig 4B, SNX27 PDZ, technical triplicates, read-out: IC50 values of displacement curves, with SEM): 427 ± 39 µM
Kd [3]: 96 ± 5 µM
SMILES: CSCC[C@H](NC(=O)CNC(C)=O)C(=O)N[C@H](C(=O)N[C@@H](CO)C(=O)N[C@@H](COP(=O)(O)O)C(=O)N[C@H](C(=O)N[C@@H](CO)C(=O)N[C@@H](Cc1ccccc1)C(=O)N[C@@H](CC(N)=O)C(=O)NCC(=O)NCC(=O)N[C@@H](Cc1ccc(O)cc1)C(N)=O)[C@@H](C)O)C(C)C [DAXX606–616 pS] (Ac-GMVS[pS]TSFNGGY-NH2)
